{"source": "ChEMBL document CHEMBL1148998", "about": "“Limonoids from the seeds of Melia azedarach” (1986)", "key": {"[1]": {"test_system": "Vibrio cholerae", "assay": "Antibacterial activity against Vibrio cholerae at 10 mg/10 ml dimethylformamide", "format": "functional"}, "[2]": {"test_system": "Klebsiella pneumoniae", "assay": "Antibacterial activity against Klebsiella pneumoniae at 10 mg/10 ml dimethylformamide", "format": "functional"}, "[3]": {"test_system": "Salmonella typhimurium", "assay": "Antibacterial activity against Salmonella Typhimurium at 10 mg/10 ml dimethylformamide", "format": "functional, Salmonella enterica subsp. enterica serovar Typhimurium"}, "[4]": {"test_system": "Escherichia coli", "assay": "Antibacterial activity against Escherichia coli at 10 mg/10 ml dimethylformamide", "format": "functional"}, "[5]": {"test_system": "Vibrio cholerae", "assay": "Antibacterial activity against Vibrio cholerae at 8 mg/10 ml dimethylformamide", "format": "functional"}, "[6]": {"test_system": "Vibrio cholerae", "assay": "Antibacterial activity against Vibrio cholerae at 6 mg/10 ml dimethylformamide", "format": "functional"}, "[7]": {"test_system": "Vibrio cholerae", "assay": "Antibacterial activity against Vibrio cholerae at 4 mg/10 ml dimethylformamide", "format": "functional"}, "[8]": {"test_system": "Vibrio cholerae", "assay": "Antibacterial activity against Vibrio cholerae at 2 mg/10 ml dimethylformamide", "format": "functional"}, "[9]": {"test_system": "Klebsiella pneumoniae", "assay": "Antibacterial activity against Klebsiella pneumoniae at 8 mg/10 ml dimethylformamide", "format": "functional"}, "[10]": {"test_system": "Klebsiella pneumoniae", "assay": "Antibacterial activity against Klebsiella pneumoniae at 6 mg/10 ml dimethylformamide", "format": "functional"}, "[11]": {"test_system": "Klebsiella pneumoniae", "assay": "Antibacterial activity against Klebsiella pneumoniae at 4 mg/10 ml dimethylformamide", "format": "functional"}, "[12]": {"test_system": "Klebsiella pneumoniae", "assay": "Antibacterial activity against Klebsiella pneumoniae at 2 mg/10 ml dimethylformamide", "format": "functional"}, "[13]": {"test_system": "Salmonella typhimurium", "assay": "Antibacterial activity against Salmonella Typhimurium at 8 mg/10 ml dimethylformamide", "format": "functional, Salmonella enterica subsp. enterica serovar Typhimurium"}, "[14]": {"test_system": "Salmonella typhimurium", "assay": "Antibacterial activity against Salmonella Typhimurium at 6 mg/10 ml dimethylformamide", "format": "functional, Salmonella enterica subsp. enterica serovar Typhimurium"}, "[15]": {"test_system": "Salmonella typhimurium", "assay": "Antibacterial activity against Salmonella Typhimurium at 4 mg/10 ml dimethylformamide", "format": "functional, Salmonella enterica subsp. enterica serovar Typhimurium"}, "[16]": {"test_system": "Salmonella typhimurium", "assay": "Antibacterial activity against Salmonella Typhimurium at 2 mg/10 ml dimethylformamide", "format": "functional, Salmonella enterica subsp. enterica serovar Typhimurium"}, "[17]": {"test_system": "Escherichia coli", "assay": "Antibacterial activity against Escherichia coli at 8 mg/10 ml dimethylformamide", "format": "functional"}, "[18]": {"test_system": "Escherichia coli", "assay": "Antibacterial activity against Escherichia coli at 6 mg/10 ml dimethylformamide", "format": "functional"}, "[19]": {"test_system": "Escherichia coli", "assay": "Antibacterial activity against Escherichia coli at 4 mg/10 ml dimethylformamide", "format": "functional"}, "[20]": {"test_system": "Escherichia coli", "assay": "Antibacterial activity against Escherichia coli at 2 mg/10 ml dimethylformamide", "format": "functional"}}}
{"smiles": "CN[C@@H]1[C@H](O[C@H]2[C@H](O[C@H]3[C@H](O)[C@@H](O)[C@H](N=C(N)N)[C@@H](O)[C@@H]3N=C(N)N)O[C@@H](C)[C@]2(O)C=O)O[C@@H](CO)[C@H](O)[C@H]1O", "note": "[STREPTOMYCIN]", "values": [{"measurement": "inhibition zone (IZ)", "setting": "[1]", "result": 12, "unit": "mm"}, {"measurement": "inhibition zone (IZ)", "setting": "[2]", "result": 10, "unit": "mm"}, {"measurement": "inhibition zone (IZ)", "setting": "[3]", "result": 9, "unit": "mm"}, {"measurement": "inhibition zone (IZ)", "setting": "[4]", "result": 8, "unit": "mm"}]}
{"smiles": "CC(=O)OC1=C2C(C)(C)[C@@H](O[C@@H]3O[C@@H](C)[C@H](O)[C@@H](O)[C@H]3O)C=C[C@]2(C)[C@H]2[C@H](O)C[C@@]3(C)[C@H](c4ccoc4)C[C@H]4O[C@]43[C@]2(C)C1=O", "values": [{"measurement": "inhibition zone (IZ)", "setting": "[1]", "result": 20, "unit": "mm"}, {"measurement": "inhibition zone (IZ)", "setting": "[5]", "result": 18, "unit": "mm"}, {"measurement": "inhibition zone (IZ)", "setting": "[6]", "result": 17, "unit": "mm"}, {"measurement": "inhibition zone (IZ)", "setting": "[7]", "result": 15, "unit": "mm"}, {"measurement": "inhibition zone (IZ)", "setting": "[8]", "result": 13, "unit": "mm"}, {"measurement": "inhibition zone (IZ)", "setting": "[2]", "result": 18, "unit": "mm"}, {"measurement": "inhibition zone (IZ)", "setting": "[9]", "result": 16, "unit": "mm"}, {"measurement": "inhibition zone (IZ)", "setting": "[10]", "result": 14, "unit": "mm"}, {"measurement": "inhibition zone (IZ)", "setting": "[11]", "result": 12, "unit": "mm"}, {"measurement": "inhibition zone (IZ)", "setting": "[12]", "result": 10, "unit": "mm"}, {"measurement": "inhibition zone (IZ)", "setting": "[3]", "result": 16, "unit": "mm"}, {"measurement": "inhibition zone (IZ)", "setting": "[13]", "result": 15, "unit": "mm"}, {"measurement": "inhibition zone (IZ)", "setting": "[14]", "result": 13, "unit": "mm"}, {"measurement": "inhibition zone (IZ)", "setting": "[15]", "result": 12, "unit": "mm"}, {"measurement": "inhibition zone (IZ)", "setting": "[16]", "result": 11, "unit": "mm"}, {"measurement": "inhibition zone (IZ)", "setting": "[4]", "result": 15, "unit": "mm"}, {"measurement": "inhibition zone (IZ)", "setting": "[17]", "result": 14, "unit": "mm"}, {"measurement": "inhibition zone (IZ)", "setting": "[18]", "result": 12, "unit": "mm"}, {"measurement": "inhibition zone (IZ)", "setting": "[19]", "result": 11, "unit": "mm"}, {"measurement": "inhibition zone (IZ)", "setting": "[20]", "result": 10, "unit": "mm"}]}
